Literature values, collected in US9125814B2, “Biocompatible crosslinked hydrogels, drug-loaded hydrogels and methods of using the same” (Angiotech Pharmaceuticals, Inc., priority 2008, dated 2015).

- pKa: ~8.1
Structure (SMILES): CCCCN1CCCCC1C(=O)Nc1c(C)cccc1C (racemic) [racemic bupivacaine, 1-butyl-N-(2,6-dimethylphenyl)piperidine-2-carboxamide]
